In patent publication US20220339110A1, “FAST CONSOLIDATING COMPOUNDS” (Universität Innsbruck, priority 2019, published 2022):
One block for each molecule: values may come before it.

How the values were obtained:
Format in all cases: physicochemical
[1] = Moulding process: time to stable tablets (consolidation/solidification time) and liquid amount after wetting the powder; conditions: for consolidation/solidification time (in words): wetted with water
Description: α-Lactose anhydrate was transferred into wells of a moulding form and wetted with pure water and water/alcohol mixtures, as shown in FIG. 2. Pure water and aqueous EtOH solutions, 25% (v/v) and 50% EtOH (v/v), ratio by volume, were used as solvents. These experiments were performed to measure the time needed for the formation of stable tablets, to determine the optimal amount of solvent, and to determine the optimal water:alcohol ratio in water/alcohol mixtures.
The solidification time (time until the tablets show sufficient hardness for handling) after addition of the solvent was determined using pure water and an aqueous glucose solution. It was observed that the solidification time of anhydrous glucose is much shorter when glucose solutions are applied instead of pure water. Glucose anhydrate solidifies after 10-15 min when water is used but hardens within 2-6 minutes after the application of glucose solutions. The amount of glucose in the solution is less critical for the solidification time, a concentration of 25 wt % is sufficient.
The moulding form tests were carried out with two different solvents: a) water and b) 50% EtOH (v/v) solution.
In a first experiment, tablets with amorphous Ca-L-Lactate (L-CaLac) using pure water were produced.
Wetting partly anhydrous MgSO4 (7 wt % water content) with pure water results in solid tablets. After 5 minutes the tablets can be unbaged from the moulding form. The wettability is not as good as for the α-lactose powders. About 50-60 μl water were added per 100 mg powder. By using a saturated aqueous solution of MgSO4 the hardening time could be halved (2-3 minutes).

[2] = Drug load capacity test of moulded tablets with glass beads (Spheriglass 2429); conditions: for Consolidation time / Consolidation time (in words): loaded with glass beads; for time to solid/stable tablets (in words): mixture with Spheriglass 2429 (50 wt % where stated), water
Source text: As model substance for the drug load capacity test, Spheriglass 2429 (glass beads, Potters Europe) was used, because there are no interactions between the glass beads and lactose to exclude other effects. Spheriglass 2429 has a particle size distribution of 53-106 μm. It was mixed with refluxed and sieved Spherolac 100 anhydrate (Spherolac 100 AH) (<250 μm) in a ratio of 30 and 60 wt %. […] The higher the amount of Spheriglass 2429 the less binder solution is needed, because of the decreasing amounts of water binding excipients.
A mixture of 50 wt % anhydrous glucose and 50 wt % Spheriglass 2429 was wetted with a 25 wt % glucose solution and pure water. The aim of this experiment was to investigate if the consolidation time is slowed down by loading a slower solidifying hydrate (in comparison to α-Lactose anhydrate) with a non-matrix-forming substance. […] The advantages of the use of glucose are rather seen as additive to other fast consolidating excipients to improve or modify the consolidation process, its rate, and the properties of the product.

[3] = Permanent stability of Na2SO4 tablets with binder in the wetting liquid
Description: Attempts were undertaken to ensure the permanent stability of the Na2SO4 (decahydrate) tablets by adding binder polymers to the wetting liquid. Amounts of 5 wt % and 7.5 wt % aqueous PVA 388 solutions were tested. […] The tests show the possibility of a new approach: rapid solidification by hydrate formation and permanent stability through additional binders.

[4] = Tablet hardness, three-point-break tester; conditions: 200 mg
Description: The tablet hardness was measured with a three-point-break tester by Charles Ischi AG (HC 6.2 50 N).

[5] = Mercury intrusion porosimetry of lactose tablets
Description: The porosity, ratio between the sample void volumes and its external volume, of a tablet should be high if a fast disintegration is desired (e.g. for sublingual tablets). Porosity was measured using mercury porosimetry. For a complete mercury intrusion porosimetry (MIP) measurement, two different porosimeter types are needed—a low-pressure porosimeter (LP-MIP) and a high-pressure porosimeter (HP-MIP). As the LP-MIP, Pascal 140 (Thermo Fisher Scientific, I-Milano) was used and the Porosimeter 2000 (Carlo Erba, I-Milano) as the HP-MIP. Pure Spherolac 100 was used for the experiments.

[6] = Disintegration time of lactose tablets
Source text: Mercury porosimetry of the 3D-powder printed tablet indicated a porosity of 63.8% and an average pore radius of 48 Micron. […] Also the tablets produced by the molding process show porosities around 50% whereas those of the pressed tablets are much smaller. The high porosity guarantees a fast intrusion of fluids into the tablet and is thus an important prerequisite of a fast disintegration.

[7] = Mercury intrusion porosimetry of lactose tablets; conditions: 3D-powder printed tablet; calculated value
[8] = 50 wt % Spheriglass 2429, 25 wt % glucose solution and pure water
[9] = 5 wt % PVA 388 in 50% EtOH (v/v)
[10] = 7.5 wt % PVA 388 in 50% EtOH (v/v)
[11] = 10 wt % PVA 388 in 50% EtOH (v/v)
[12] = production method: 3D-powder printing
[13] = production method: moulding process
[14] = production method: compaction 10 kN
[15] = production method: compaction 30 kN

- Consolidation time ([1]; solution: water): 1 to 2 min
- consolidation/solidification time (in words) [1]: within one minute
- solidification time ([2]; 50 wt % Spheriglass 2429, 50% EtOH (v/v) binder solution): ca. 45 min
- Consolidation time ([2]; solvent H2O): 1 to 2 min
SMILES: C[C@H](O)C(=O)[O-].C[C@H](O)C(=O)[O-].[Ca+2] [Ca-Lactate anhydrate, anhydrous Ca-Lactate]

SMILES: O.O=S(=O)([O-])[O-].O=S(=O)([O-])[O-].[Ca+2].[Ca+2] [Calcium sulphate hemihydrate, reference compound]
- Consolidation time ([1]; solution: water): ca. 35 min

- solidification time ([1]; glucose solutions applied): 2 to 6 min
- Consolidation time ([1]; solution: aqueous glucose solution (25-50 wt %)): 2 to 6 min
- Consolidation time ([1]; solution: water): ca. 10 min
- solidification time ([1]; water): 10 to 15 min
- state of tablets after 10 minutes [2, 8]: still rather soft
- time after which tablets could be removed (in words) [2, 8]: After four minutes
- Consolidation time ([2]; solvent H2O): >10 min
SMILES: OC[C@H]1OC(O)[C@H](O)[C@@H](O)[C@@H]1O (some centres unmarked) [Glucose anhydrate]

- time to stable tablets ([1]; pure water, with seed crystals of the dodecahydrate (about 2%)): 1 to 4 min
- Consolidation time ([1]; solution: water): 1 to 4 min
- solidification time ([1]; without seed crystals): about 4 min
- time to stable tablets ([2]; 50% wt Spheriglass 2429, wetting with water): ≥ 10 min
- Consolidation time ([2]; solvent H2O): >10 min
SMILES: O=C([O-])CC(O)(CC(=O)[O-])C(=O)[O-].O=C([O-])CC(O)(CC(=O)[O-])C(=O)[O-].[Mg+2].[Mg+2].[Mg+2] [Mg Citrate anhydrate, anhydrous Mg Citrate]

SMILES: O=S(=O)([O-])[O-].[Mg+2] [MgSO4 anhydrate]
- Consolidation time (in words) ([1]; solution: water): few seconds
- consolidation/solidification time (in words) [1]: within a few seconds
- Consolidation time (in words) ([2]; solvent H2O): few seconds
- time to solid/stable tablets (in words) [2]: after a few seconds

SMILES: O=S(=O)([O-])[O-].[Na+].[Na+] [Na2SO4 anhydrate]
- Consolidation time (in words) ([1]; 50% EtOH (v/v) solution): within one minute
- Consolidation time (in words) ([1]; solution: water): few seconds
- consolidation/solidification time (in words) [1]: within a few seconds
- Consolidation time (in words) ([2]; solvent H2O): few seconds
- time to solid/stable tablets (in words) [2]: within a few seconds
- mechanical stability of tablets (in words) ([3]; 7.5 wt % aqueous PVA 388 solution, after drying two and a half days at 22° C. or 40° C.): mechanically stable tablets
- mechanical stability of tablets the next day (in words) ([3]; wetted with 5 wt % aqueous PVA 388 solution): still could be easily crushed

- Consolidation time (in words) ([1]; 50% EtOH (v/v) solution): about four to five minutes
- Consolidation time (in words) ([1]; solution: water): few seconds
- consolidation/solidification time (in words) [1]: within a few seconds
- Consolidation time ([2]; solvent H2O): 2 min
- Consolidation time ([2]; solvent H2O/EtOH 1:1): 4 min
- time to solid/stable tablets (in words) [2]: Two minutes
- time after which tablets could be removed ([2]; with Spheriglass, 50% EtOH (v/v) solution): 2 to 4 min
SMILES: OC[C@H]1O[C@H](OC[C@H]2O[C@H](O[C@]3(CO)O[C@H](CO)[C@@H](O)[C@@H]3O)[C@H](O)[C@@H](O)[C@@H]2O)[C@H](O)[C@@H](O)[C@H]1O [Raffinose anhydrate]

SMILES: OC[C@H]1O[C@@H](O[C@H]2[C@H](O)[C@@H](O)[C@@H](O)O[C@@H]2CO)[C@H](O)[C@@H](O)[C@H]1O [Spherolac 100 AH]
- Average hardness of tablet [4, 9]: 10.45 N
- Average hardness of tablet ([4]; 5 wt % aq. PVA 388): 8.65 N
- Average hardness of tablet [4, 10]: 16.75 N
- Average hardness of tablet ([4]; 7.5 wt % aq. PVA 388): 12.2 N
- Average hardness of tablet [4, 11]: 20.2 N
- Average hardness of tablet ([4]; 10 wt % aq. PVA 388): 14.75 N
- Average hardness of tablet ([4]; binder solution: water): 9.4 N
- time to stable tablets after wetting (in words) ([2]; mixed with Spheriglass 2429 at 30 and 60 wt %): within a few seconds
- Average Pore Radius ([5]; 3D-powder printed tablet): 48 Micron
- porosity (mercury porosimetry) ([5]; 3D-powder printed tablet): 63.8%
- Average Pore Radius [5, 12]: 48 μm
- Porosity [5, 12]: 63.8%
- Average Pore Radius [5, 13]: 2.4 μm
- Porosity [5, 13]: 49%
- Porosity ([5]; tablets produced by the molding process): around 50%
- disintegration time (in words) ([6]; printed tablets): few seconds
- calculated porosity [7]: 71.3%

SMILES: O.OC[C@H]1O[C@@H](O[C@H]2[C@H](O)[C@@H](O)[C@@H](O)O[C@@H]2CO)[C@H](O)[C@@H](O)[C@H]1O [Spherolac 100 MH, α-Lactose monohydrate]
- Average hardness of tablet [4, 9]: 5.85 N
- Average hardness of tablet [4, 10]: 8.1 N
- Average hardness of tablet [4, 11]: 13.1 N
- Average Pore Radius [5, 14]: 0.6 μm
- Porosity [5, 14]: 12%
- Average Pore Radius [5, 15]: 0.2 μm
- Porosity [5, 15]: 5%
- disintegration time (in words) ([6]; tablets produced at compaction pressure of 30 kN): several minutes

SMILES: OC[C@H]1O[C@@H](O[C@H]2[C@H](O)[C@@H](O)[C@@H](O)O[C@@H]2CO)[C@H](O)[C@@H](O)[C@H]1O [Stable α-Lactose anhydrate]
- Consolidation time ([1]; solution: water): 0.083 to 0.167 min
- time to stable tablets ([1]; water/alcohol mixtures (25% and 50% EtOH v/v)): more than 10 seconds
- time to stable tablets ([1]; wetting with pure water): 0.083 to 0.167 min
- Consolidation time (in words) ([2]; solvent H2O): few seconds
- Consolidation time (in words) ([2]; solvent H2O/EtOH 1:1): few seconds
